Legend:
[1] = molecular target: T1, NUAK family SNF1-like kinase 2 (Homo sapiens) (UniProt Q9H093); assay: Selectivity interaction (LanthaScreen Eu Kinase Binding Assay) EUB0001632a NUAK2; conditions: at 10 µM
T1 sequence (whole entry): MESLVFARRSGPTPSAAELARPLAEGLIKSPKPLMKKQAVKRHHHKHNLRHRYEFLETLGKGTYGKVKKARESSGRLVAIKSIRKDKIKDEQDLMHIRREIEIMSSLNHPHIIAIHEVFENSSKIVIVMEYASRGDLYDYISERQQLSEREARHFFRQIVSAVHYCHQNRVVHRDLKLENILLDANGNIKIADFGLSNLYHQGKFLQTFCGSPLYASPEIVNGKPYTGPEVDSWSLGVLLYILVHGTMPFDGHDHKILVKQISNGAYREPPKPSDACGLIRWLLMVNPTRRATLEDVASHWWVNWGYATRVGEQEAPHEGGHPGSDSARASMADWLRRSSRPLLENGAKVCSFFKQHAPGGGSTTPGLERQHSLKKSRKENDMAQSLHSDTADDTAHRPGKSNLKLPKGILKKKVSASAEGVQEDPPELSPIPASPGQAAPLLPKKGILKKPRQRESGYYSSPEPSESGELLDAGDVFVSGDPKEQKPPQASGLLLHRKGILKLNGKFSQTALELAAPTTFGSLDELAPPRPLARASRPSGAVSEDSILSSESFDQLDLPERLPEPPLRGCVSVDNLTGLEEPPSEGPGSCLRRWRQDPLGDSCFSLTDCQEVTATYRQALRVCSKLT

[2] = molecular target: T2, Peripheral plasma membrane protein CASK (Homo sapiens) (UniProt O14936); assay: Selectivity interaction (KinomeScan (DiscoverX)) EUB0000595a CASK; conditions: at 10 µM
T2 sequence (whole entry): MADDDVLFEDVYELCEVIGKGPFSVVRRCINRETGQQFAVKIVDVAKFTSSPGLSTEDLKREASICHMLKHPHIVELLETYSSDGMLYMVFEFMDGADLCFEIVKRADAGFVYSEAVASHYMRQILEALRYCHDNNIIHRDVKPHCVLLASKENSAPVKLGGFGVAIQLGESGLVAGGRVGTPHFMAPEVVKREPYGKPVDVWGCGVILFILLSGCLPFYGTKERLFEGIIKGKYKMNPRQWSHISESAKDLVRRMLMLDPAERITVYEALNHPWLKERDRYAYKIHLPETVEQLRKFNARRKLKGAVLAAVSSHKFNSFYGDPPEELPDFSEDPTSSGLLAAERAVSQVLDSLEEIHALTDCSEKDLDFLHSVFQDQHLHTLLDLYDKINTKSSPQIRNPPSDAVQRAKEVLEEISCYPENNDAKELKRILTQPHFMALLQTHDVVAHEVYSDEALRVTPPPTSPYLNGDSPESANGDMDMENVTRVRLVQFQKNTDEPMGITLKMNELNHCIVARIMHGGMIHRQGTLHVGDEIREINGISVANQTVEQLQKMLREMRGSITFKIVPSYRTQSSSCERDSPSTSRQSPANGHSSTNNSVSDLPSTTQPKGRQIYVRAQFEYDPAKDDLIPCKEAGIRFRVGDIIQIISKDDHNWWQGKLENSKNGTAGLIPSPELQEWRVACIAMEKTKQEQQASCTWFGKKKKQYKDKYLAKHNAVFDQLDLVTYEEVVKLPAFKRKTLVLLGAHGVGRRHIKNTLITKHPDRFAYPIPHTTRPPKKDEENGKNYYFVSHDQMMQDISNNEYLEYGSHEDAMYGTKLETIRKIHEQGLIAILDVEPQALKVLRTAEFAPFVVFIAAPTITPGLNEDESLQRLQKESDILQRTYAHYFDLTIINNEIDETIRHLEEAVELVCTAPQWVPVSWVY

[3] = molecular target: TRAF2 and NCK-interacting protein kinase (Homo sapiens) (UniProt Q9UKE5); assay: Selectivity interaction (KinomeScan (DiscoverX)) EUB0000595a TNIK; conditions: at 10 µM
[4] = molecular target: Tyrosine-protein kinase JAK2 (Homo sapiens, UniProt O60674); assay: Selectivity interaction (KinomeScan (DiscoverX)) EUB0000045b JAK2
Chain of Tyrosine-protein kinase JAK2 (O60674 whole entry): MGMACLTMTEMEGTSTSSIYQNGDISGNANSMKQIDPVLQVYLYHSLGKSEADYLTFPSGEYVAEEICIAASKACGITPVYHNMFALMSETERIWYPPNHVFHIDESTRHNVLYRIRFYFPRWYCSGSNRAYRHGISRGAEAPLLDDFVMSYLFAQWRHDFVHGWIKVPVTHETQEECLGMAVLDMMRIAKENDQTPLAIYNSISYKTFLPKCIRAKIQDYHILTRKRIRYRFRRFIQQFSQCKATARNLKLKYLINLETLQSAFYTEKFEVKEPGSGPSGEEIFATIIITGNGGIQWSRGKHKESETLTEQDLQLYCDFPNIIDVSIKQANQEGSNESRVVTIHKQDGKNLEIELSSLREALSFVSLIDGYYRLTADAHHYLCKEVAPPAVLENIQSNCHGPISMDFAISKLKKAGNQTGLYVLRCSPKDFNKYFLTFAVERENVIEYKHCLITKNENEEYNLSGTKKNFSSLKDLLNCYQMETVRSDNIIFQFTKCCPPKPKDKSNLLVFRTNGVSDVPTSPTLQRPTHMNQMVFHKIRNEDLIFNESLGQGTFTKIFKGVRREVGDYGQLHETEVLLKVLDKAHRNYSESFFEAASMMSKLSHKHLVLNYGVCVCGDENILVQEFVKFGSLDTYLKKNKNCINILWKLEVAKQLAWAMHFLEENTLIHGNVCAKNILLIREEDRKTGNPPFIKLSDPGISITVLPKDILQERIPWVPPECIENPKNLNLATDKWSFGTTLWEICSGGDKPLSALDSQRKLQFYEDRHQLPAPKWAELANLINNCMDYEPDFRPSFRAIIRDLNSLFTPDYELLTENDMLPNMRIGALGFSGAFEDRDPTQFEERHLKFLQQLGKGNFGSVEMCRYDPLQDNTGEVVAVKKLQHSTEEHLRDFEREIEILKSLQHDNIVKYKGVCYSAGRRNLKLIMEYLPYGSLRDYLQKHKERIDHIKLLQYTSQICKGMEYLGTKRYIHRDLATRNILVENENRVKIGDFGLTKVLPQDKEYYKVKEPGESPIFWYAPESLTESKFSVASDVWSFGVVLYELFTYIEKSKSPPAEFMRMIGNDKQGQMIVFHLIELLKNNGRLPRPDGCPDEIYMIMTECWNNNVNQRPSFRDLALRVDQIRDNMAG

Chain of TRAF2 and NCK-interacting protein kinase (Homo sapiens) (Q9UKE5 whole entry, looked up): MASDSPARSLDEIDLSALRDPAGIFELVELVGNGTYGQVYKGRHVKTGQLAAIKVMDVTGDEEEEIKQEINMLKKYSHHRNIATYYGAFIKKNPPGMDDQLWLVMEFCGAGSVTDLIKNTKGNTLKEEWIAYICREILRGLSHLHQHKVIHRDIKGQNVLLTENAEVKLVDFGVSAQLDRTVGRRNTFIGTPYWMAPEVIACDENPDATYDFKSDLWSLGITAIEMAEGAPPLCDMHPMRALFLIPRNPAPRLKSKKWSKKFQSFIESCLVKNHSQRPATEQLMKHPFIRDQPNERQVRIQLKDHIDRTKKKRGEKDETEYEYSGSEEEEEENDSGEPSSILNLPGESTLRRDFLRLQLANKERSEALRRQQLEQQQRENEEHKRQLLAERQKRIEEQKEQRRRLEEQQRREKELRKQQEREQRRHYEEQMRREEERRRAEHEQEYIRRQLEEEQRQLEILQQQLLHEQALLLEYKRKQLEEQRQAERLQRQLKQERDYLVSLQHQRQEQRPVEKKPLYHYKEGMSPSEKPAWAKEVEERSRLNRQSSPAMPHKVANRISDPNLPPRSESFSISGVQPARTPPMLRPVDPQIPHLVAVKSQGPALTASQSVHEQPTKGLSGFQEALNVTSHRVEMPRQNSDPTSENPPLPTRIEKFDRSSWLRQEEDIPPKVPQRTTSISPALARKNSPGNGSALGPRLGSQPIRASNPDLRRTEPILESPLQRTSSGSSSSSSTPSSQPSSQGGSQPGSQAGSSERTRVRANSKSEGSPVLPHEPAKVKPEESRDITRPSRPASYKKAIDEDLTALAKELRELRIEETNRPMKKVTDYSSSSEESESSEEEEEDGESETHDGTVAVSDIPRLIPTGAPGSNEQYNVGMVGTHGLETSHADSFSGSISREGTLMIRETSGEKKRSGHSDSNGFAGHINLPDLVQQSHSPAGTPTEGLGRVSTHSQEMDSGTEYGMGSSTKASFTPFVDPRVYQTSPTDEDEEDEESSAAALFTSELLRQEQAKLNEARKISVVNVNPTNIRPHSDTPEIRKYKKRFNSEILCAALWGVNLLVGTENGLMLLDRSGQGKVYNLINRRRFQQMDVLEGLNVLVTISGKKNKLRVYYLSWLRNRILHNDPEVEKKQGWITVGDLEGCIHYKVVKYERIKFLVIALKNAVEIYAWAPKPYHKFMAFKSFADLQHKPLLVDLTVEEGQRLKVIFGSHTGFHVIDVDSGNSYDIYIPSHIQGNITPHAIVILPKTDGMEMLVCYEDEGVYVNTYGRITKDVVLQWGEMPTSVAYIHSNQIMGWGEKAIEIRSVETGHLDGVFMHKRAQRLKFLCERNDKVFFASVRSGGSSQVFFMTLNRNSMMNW

Cn1cc(-n2cnc3c(NCc4nc5cc(Cl)c(Cl)cc5[nH]4)nc(N4CCOCC4)nc32)cn1
% of inhibition [1]: -12.8%

COCC(=O)NC/C=C/c1ccc2ncnc(Nc3ccc(Oc4ccc(C)nc4)c(C)c3)c2c1 [CP-724714]
% of control [2]: 100% | % of control [3]: 89%

C=CC(=O)Nc1cc(-n2c(=O)ccc3cnc4ccc(-c5ccc(NS(C)(=O)=O)cc5)cc4c32)ccc1C
% of control ([4]; at 1 µM): 86% | % of control ([4]; at 10 µM): 100%
